The target in assay [1] is T1, His tagged PTPN2 (TC45) protein (Homo sapiens, UniProt P17706).
T1 construct: made in house
T1 sequence (P17706 with tags, fused parts or gaps isoform P17706-2): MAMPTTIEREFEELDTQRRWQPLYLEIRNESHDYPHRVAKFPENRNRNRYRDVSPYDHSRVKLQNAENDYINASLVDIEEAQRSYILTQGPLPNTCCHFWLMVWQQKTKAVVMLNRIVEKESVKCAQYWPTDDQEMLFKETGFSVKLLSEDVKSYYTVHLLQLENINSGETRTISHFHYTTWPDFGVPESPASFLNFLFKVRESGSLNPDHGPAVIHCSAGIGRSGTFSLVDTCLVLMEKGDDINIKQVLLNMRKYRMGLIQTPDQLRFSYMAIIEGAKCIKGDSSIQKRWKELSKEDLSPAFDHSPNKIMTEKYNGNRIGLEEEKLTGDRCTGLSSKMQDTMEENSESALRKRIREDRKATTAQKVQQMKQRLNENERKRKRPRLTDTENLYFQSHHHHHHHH
The experiment in a line: Mobility shift assay (MSA) to determine potency of PTPN2 inhibitors. It is filed as biochemical. The note with it: 0.5 nM enzyme, 2 μM substrate. As for the experimental part:
Compound activity was determined using in house His tagged PTPN2 (TC45) protein (SEQ ID NO: 1) in an in vitro enzymatic reaction. The enzymatic assay used to determine activity was a mobility shift assay using a LabChip EZ Reader by Caliper Life Sciences. The enzymatic reaction was carried out in assay buffer (50 mM HEPES pH 7.5, 1 mM EGTA, 10 mM EDTA, 0.01% Tween® 20, and 2 mM DTT). The compounds were dispensed on a white 384 well ProxiPlate™ (PerkinElmer Catalog #6008289) plate using the Labcyte Echo at varying concentrations (12 point, 1:3 dilution). The enzyme (at 0.5 nM) was incubated with compound for 10 minutes at room temperature. Then the substrate (phosphorylated insulin receptor probe sequence: ((OG488)-(NH—CH2—CH2—O—CH2—CH2—O—CH2—CO)-T-R-D-I-(PY)-E-T-D-Y—Y—R—K—K—NH2) (SEQ ID NO: 2) was added at 2 μM to the plates and incubated for another 10 minutes at room temperature. Finally, a quench solution (water and 4-bromo-3-(2-oxo-2-propoxyethoxy)-5-(3-{[1-(phenylmethanesulfonyl)piperidin-4-yl]amino}phenyl)thiophene-2-carboxylic acid) was added to the plates, which were then run on the EZ Reader (excitation 488 nm, emission 530 nm) to measure % conversion (the amount of phosphorylated substrate which was de-phosphorylated by PTPN2). […] The % inhibition was then used to calculate the IC50 values.

For assay [2], the target named is T2, His tagged full-length PTPN1 protein (Homo sapiens, UniProt P18031).
T2 construct: made in house
T2 sequence (P18031 with tags, fused parts or gaps): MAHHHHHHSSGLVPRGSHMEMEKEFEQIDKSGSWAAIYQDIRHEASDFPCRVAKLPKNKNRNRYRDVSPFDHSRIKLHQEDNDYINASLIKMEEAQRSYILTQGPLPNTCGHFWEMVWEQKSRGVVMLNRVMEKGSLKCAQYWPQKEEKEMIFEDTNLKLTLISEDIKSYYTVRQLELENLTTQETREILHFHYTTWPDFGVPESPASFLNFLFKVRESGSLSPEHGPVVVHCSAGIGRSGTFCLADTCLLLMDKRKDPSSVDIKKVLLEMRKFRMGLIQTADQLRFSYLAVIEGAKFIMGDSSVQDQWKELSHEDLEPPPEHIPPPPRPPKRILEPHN
The experiment in a line: Mobility shift assay (MSA) to determine potency of PTPN1 inhibitors. The note with it: 0.5 nM enzyme, 2 μM substrate. It is filed as biochemical. The procedure:
Compound activity was determined using in house His tagged full-length PTPN1 protein (SEQ ID NO: 3) in an in vitro enzymatic reaction. The enzymatic assay used to determine activity is a mobility shift assay using a LabChip EZ Reader by Caliper Life Sciences. The enzymatic reaction was carried out in assay buffer (50 mM HEPES pH 7.5, 1 mM EGTA, 10 mM EDTA. 0.01% Tween® 20, and 2 mM DTT). The compounds were dispensed on a white 384 well ProxiPlate™ (PerkinElmer Cat #6008289) plate using a Labcyte Echo® liquid handler at varying concentrations (12 point, 1:3 dilution). The enzyme (at 0.5 nM) was incubated with compound for 10 minutes at room temperature. Then the substrate (phosphorylated insulin receptor probe sequence: ((OG488)-(NH—CH2—CH2—O—CH2—CH2—O—CH2—CO)-T-R-D-I-(PY)-E-T-D-Y—Y—R—K—K—NH2) (SEQ ID NO: 2) was added at 2 μM to the plates and incubated for another 10 minutes at room temperature. Finally, a quench solution (water and 4-bromo-3-(2-oxo-2-propoxyethoxy)-5-(3-{[1-(phenylmethanesulfonyl)piperidin-4-yl]amino}phenyl)thiophene-2-carboxylic acid) was added to the plates, which were then run on the EZ Reader (excitation 488 nm, emission 530 nm) to measure % conversion (the amount of phosphorylated substrate which was de-phosphorylated by PTPN1). […] The % inhibition was then used to calculate the IC50 values.

Some results are limits rather than exact numbers.

Regarding `Cc1nn(C)cc1CCN1CCc2cc(O)c(N3CC(=O)NS3(=O)=O)c(F)c2C1` [Compound 256], the half-maximal inhibitory concentration (IC50) in assay [1] and in assay [2] was 1 to 10 nM in each case.
In the case of `O=C1CN(c2c(O)cc3c(c2F)C[C@H](NCC2CCCCO2)CC3)S(=O)(=O)N1` (stereo partly drawn) [Compound 350, 5-[(7R)-1-fluoro-3-hydroxy-7-{[(oxan-2-yl)methyl]amino}-5,6,7,8-tetrahydronaphthalen-2-yl]-1λ^6,2,5-thiadiazolidine-1,1,3-trione], the values for the IC50 in assay [1] and in assay [2] were 1 to 10 nM and 10 to 100 nM, respectively.
For `CN(C)CCNC(=O)N1CCc2cc(O)c(N3CC(=O)NS3(=O)=O)c(F)c2C1` [Compound 280] the same measures were > 100 nM and > 100 nM.
For `O=C1CN(c2c(O)cc3c(c2F)C[C@H](NCC2CCCOC2)CC3)S(=O)(=O)N1` (stereo partly drawn) [Compound 352, 5-[(7R)-1-fluoro-3-hydroxy-7-{[(oxan-3-yl)methyl]amino}-5,6,7,8-tetrahydronaphthalen-2-yl]-1λ^6,2,5-thiadiazolidine-1,1,3-trione] the same measures were 1 to 10 nM and 1 to 10 nM.
For the compound `O=C1CN(c2c(O)cc3c(c2F)CN(CCN2CCCC2)CC3)S(=O)(=O)N1` [Compound 193], the half-inhibitory concentration (IC50) is > 100 nM in assay [1] and 10 to 100 nM in assay [2].
`CC(C)NCCN1CCc2cc(O)c(N3CC(=O)NS3(=O)=O)c(F)c2C1` [Compound 164]: the values for the IC50 in assay [1] and in assay [2] were 10 to 100 nM and > 100 nM, respectively.
For `CC(=O)NC1CCc2cc(O)c(N3CC(=O)NS3(=O)=O)c(F)c2C1` (stereo not shown) [Compound 322] the same measures were 10 to 100 nM and 10 to 100 nM.
As to `O=C1CN(c2c(O)cc3c(c2F)CC(CNCC2CCC2)CC3)S(=O)(=O)N1` (stereo not shown) [Compound 400, 5-(7-{[(cyclobutylmethyl)amino]methyl}-1-fluoro-3-hydroxy-5,6,7,8-tetrahydronaphthalen-2-yl)-1λ^6,2,5-thiadiazolidine-1,1,3-trione], the IC50 in assay [1] and in assay [2] was 10 to 100 nM each time.
Take `O=C1CC[C@@H](CN2CCc3cc(O)c(N4CC(=O)NS4(=O)=O)c(F)c3C2)N1` [Compound 324]: the concentration for half-maximal inhibition (IC50) lay within 1 to 10 nM in assay [1] and 10 to 100 nM in assay [2].
Taken in the same sequence, the figures for `O=C1CN(c2c(O)cc3c(c2F)CN(CCCC2CC2)CC3)S(=O)(=O)N1` [Compound 159] were 10 to 100 nM and 10 to 100 nM.
Taken in the same sequence, the figures for `COC(CN1CCc2cc(O)c(N3CC(=O)NS3(=O)=O)c(F)c2C1)C1CCCC1` (stereo not shown) [Compound 249] were 10 to 100 nM and 10 to 100 nM.
Taken in the same sequence, the figures for `O=C1CN(c2c(O)cc3c(c2F)C[C@H](NCC2(C(F)F)CC2)CC3)S(=O)(=O)N1` [Compound 355, 5-[(7R)-7-({[1-(difluoromethyl)cyclopropyl]methyl}amino)-1-fluoro-3-hydroxy-5,6,7,8-tetrahydronaphthalen-2-yl]-1λ^6,2,5-thiadiazolidine-1,1,3-trione] were 1 to 10 nM and 10 to 100 nM.
Turning to `CC(C)CNC(=N)N1CCc2cc(O)c(N3CC(=O)NS3(=O)=O)c(F)c2C1` [Compound 329, 8-fluoro-6-hydroxy-N-(2-methylpropyl)-7-(1,1,4-trioxo-1λ^6,2,5-thiadiazolidin-2-yl)-3,4-dihydroisoquinoline-2(1H)-carboximidamide], the IC50 in assay [1] and in assay [2] was 10 to 100 nM each time.
Regarding `O=C1CN(c2c(O)cc3c(c2F)CN(C(=O)NCCC2CC2)CC3)S(=O)(=O)N1` [Compound 264], the half-inhibitory concentration (IC50) in assay [1] and in assay [2] was 10 to 100 nM throughout.
As to `O=C1CN(c2c(O)cc3c(c2F)CN(CCCc2cccnc2)CC3)S(=O)(=O)N1` [Compound 207], the IC50 in assay [1] and in assay [2] was 10 to 100 nM each time.
In the case of `O=C1CN(c2c(O)cc3c(c2F)CN(CC2CNC2)CC3)S(=O)(=O)N1` [Compound 165], the half-maximal inhibitory concentration (IC50) in assay [1] and in assay [2] was 10 to 100 nM throughout.
On to `Cc1c(CNC(=O)N2CCc3cc(O)c(N4CC(=O)NS4(=O)=O)c(F)c3C2)cnn1C` [Compound 271], for which the IC50 in assay [1] and in assay [2] was 10 to 100 nM in each case.
In the case of `CCC(CC)CCN[C@@H]1CCc2cc(O)c(N3CC(=O)NS3(=O)=O)c(F)c2C1` [Compound 204], the IC50 in assay [1] was < 1 nM; in assay [2], 1 to 10 nM.
For the compound `Cc1c(CCN2CCc3cc(O)c(N4CC(=O)NS4(=O)=O)c(F)c3C2)cnn1C` [Compound 257], the half-inhibitory concentration (IC50) in assay [1] and in assay [2] was 1 to 10 nM each time.
As for `COCCCCN1CCc2cc(O)c(N3CC(=O)NS3(=O)=O)c(F)c2C1` [Compound 293], the concentration for half-maximal inhibition (IC50) in assay [1] and in assay [2] was 10 to 100 nM each time.
For `CC(C)OCCCN1CCc2cc(O)c(N3CC(=O)NS3(=O)=O)c(F)c2C1` [Compound 251], the 50% inhibitory concentration (IC50) in assay [1] and in assay [2] was 10 to 100 nM in each case.
In the case of `O=C1CN(c2c(O)cc3c(c2F)C[C@H](NCCC2CCOCC2)CC3)S(=O)(=O)N1` [Compound 365, 5-[(7R)-1-fluoro-3-hydroxy-7-{[2-(oxan-4-yl)ethyl]amino}-5,6,7,8-tetrahydronaphthalen-2-yl]-1λ^6,2,5-thiadiazolidine-1,1,3-trione], the IC50 is 1 to 10 nM in assay [1] and 10 to 100 nM in assay [2].
For the compound `C[C@@H]1C[C@@H](NC(=O)OC(C)(C)C)Cc2c1cc(O)c(N1CC(=O)NS1(=O)=O)c2F` [Compound 395, tert-butyl [(2R,4R)-8-fluoro-6-hydroxy-4-methyl-7-(1,1,4-trioxo-1λ^6,2,5-thiadiazolidin-2-yl)-1,2,3,4-tetrahydronaphthalen-2-yl]carbamate], the half-inhibitory concentration (IC50) in assay [1] and in assay [2] was > 100 nM throughout.
As for `O=C1CN(c2c(O)cc3c(c2F)CN(C(=O)NCC2CCCCC2)CC3)S(=O)(=O)N1` [Compound 321], the IC50 in assay [1] and in assay [2] was 1 to 10 nM throughout.
In the case of `Cc1noc(C)c1CN1CCc2cc(O)c(N3CC(=O)NS3(=O)=O)c(F)c2C1` [Compound 208], the IC50 in assay [1] and in assay [2] was 10 to 100 nM throughout.
Take `O=C1CN(c2c(O)cc3c(c2F)CCCC3)S(=O)(=O)N1` [Compound 108]: the IC50 in assay [1] and in assay [2] was 10 to 100 nM in each case.
With `O=C1CN(c2c(O)cc3c(c2F)C[C@H](NCC2CCC(C(F)(F)F)CC2)CO3)S(=O)(=O)N1` (stereo partly drawn) [Compound 380, 5-[(3S)-5-fluoro-7-hydroxy-3-({[4-(trifluoromethyl)cyclohexyl]methyl}amino)-3,4-dihydro-2H-1-benzopyran-6-yl]-1λ^6,2,5-thiadiazolidine-1,1,3-trione], the IC50 in assay [1] and in assay [2] was 10 to 100 nM throughout.
`CC(C)CNCC1CCc2cc(O)c(N3CC(=O)NS3(=O)=O)c(F)c2C1` (stereo not shown) [Compound 333, 5-(1-fluoro-3-hydroxy-7-{[(2-methylpropyl)amino]methyl}-5,6,7,8-tetrahydronaphthalen-2-yl)-1λ^6,2,5-thiadiazolidine-1,1,3-trione]: the IC50 in assay [1] and in assay [2] was 10 to 100 nM in each case.
As to `CC1=C(CCN2CCc3cc(O)c(N4CC(=O)NS4(=O)=O)c(F)c3C2)C(C)(C)CCC1` [Compound 297], the IC50 is < 1 nM in assay [1] and 1 to 10 nM in assay [2].
